# Measurements: the supplement of paper PMC11061612
# Experiments:
# U-698-M = conditions: B-Cell Non-Hodgkin's Lymphoma
# Method in brief: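 Cancer cell lines in 1536-well plates (7.5 μl DMEM/F12 or RPMI, 10% FBS) were held 24 hours at 37°C and 5% CO2 and then dosed for 72 hours at a final DMSO of typically 0.2%. Viability was taken from CellTiter-Glo 2.0 luminescence, scaled between blank-well and DMSO-well means. Curves were fitted as two-parameter logistic models with a non-linear mixed effects model, from which the single-agent IC50 was taken.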
# [1] = tested on: CCK-81 (Colorectal Carcinoma); assay: combination Emax (second highest fraction inhibited in the dose matrix, 72 h); higher = more inhibition; extreme values may be limits of the assay
# Method in brief: (§1)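 Cell lines in DMEM/F12 or RPMI with 10% FBS were plated in 1536-well plates, held 24 hours at 37°C, 5% CO2, then given two-drug dose matrices for 72 hours (DMSO typically 0.2%). Viability was read by CellTiter-Glo 2.0 luminescence and scaled as inhibition from 0 (vehicle wells) to 1 (blank wells). Combination Emax is the second-highest inhibition in the matrix; Bliss excess is observed combination effect minus expected EA + EB − EA·EB, EA and EB being single-agent effects.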
# FU97 (Gastric Carcinoma) [2] = assay: as above
# Method in brief: as §1
# [3] = tested on: NCI-H1666 (Lung Adenocarcinoma); assay: as above
# Method in brief: as §1
# IGR-37 (Melanoma) [4] = assay: as above
# Method in brief: as §1
# [5] = tested on: BICR22 (Oral Cavity Carcinoma); assay: as above
# Method in brief: as §1
# [6] = tested on: COLO-320-HSR (Colorectal Carcinoma); assay: as above
# Method in brief: as §1
# [7] = tested on: NCI-H1581 (Non-Small Cell Lung Carcinoma); assay: as above
# Method in brief: as §1
# [8] = tested on: ECC10 (Gastric Carcinoma); assay: as above
# Method in brief: as §1
# [9] = tested on: VCaP (Prostate Carcinoma); assay: as above
# Method in brief: as §1
# U-2-OS (Osteosarcoma) [10] = assay: as above
# Method in brief: as §1
# [11] = tested on: CAPAN-2 (Pancreatic Carcinoma); assay: as above
# Method in brief: as §1
# [12] = tested on: PANC-10-05 (Pancreatic Carcinoma); assay: as above
# Method in brief: as §1
# [13] = tested on: ONS-76 (Other Solid Carcinomas); assay: as above
# Method in brief: as §1
# [14] = tested on: KARPAS-422 (B-Cell Non-Hodgkin's Lymphoma); assay: as above
# Method in brief: as §1
# [15] = tested on: NCI-H64 (Small Cell Lung Carcinoma); assay: as above
# Method in brief: as §1
# [16] = tested on: TT (Thyroid Gland Carcinoma); assay: as above
# Method in brief: as §1
# [17] = tested on: NCI-H2066 (Squamous Cell Lung Carcinoma); assay: as above
# Method in brief: as §1
# NY (Osteosarcoma) [18] = assay: as above
# Method in brief: as §1
# [19] = tested on: CCK-81 (Colorectal Carcinoma); assay: Bliss excess, mean over the matrix (fraction); higher = more synergy
# Method in brief: as §1
# FU97 (Gastric Carcinoma) [20] = assay: as above
# Method in brief: as §1
# [21] = tested on: NCI-H1666 (Lung Adenocarcinoma); assay: as above
# Method in brief: as §1
# IGR-37 (Melanoma) [22] = assay: as above
# Method in brief: as §1
# [23] = tested on: BICR22 (Oral Cavity Carcinoma); assay: as above
# Method in brief: as §1
# [24] = tested on: COLO-320-HSR (Colorectal Carcinoma); assay: as above
# Method in brief: as §1
# [25] = tested on: NCI-H1581 (Non-Small Cell Lung Carcinoma); assay: as above
# Method in brief: as §1
# [26] = tested on: ECC10 (Gastric Carcinoma); assay: as above
# Method in brief: as §1
# [27] = tested on: VCaP (Prostate Carcinoma); assay: as above
# Method in brief: as §1
# U-2-OS (Osteosarcoma) [28] = assay: as above
# Method in brief: as §1
# [29] = tested on: CAPAN-2 (Pancreatic Carcinoma); assay: as above
# Method in brief: as §1
# [30] = tested on: PANC-10-05 (Pancreatic Carcinoma); assay: as above
# Method in brief: as §1
# [31] = tested on: ONS-76 (Other Solid Carcinomas); assay: as above
# Method in brief: as §1
# [32] = tested on: KARPAS-422 (B-Cell Non-Hodgkin's Lymphoma); assay: as above
# Method in brief: as §1
# [33] = tested on: NCI-H64 (Small Cell Lung Carcinoma); assay: as above
# Method in brief: as §1
# [34] = tested on: TT (Thyroid Gland Carcinoma); assay: as above
# Method in brief: as §1
# [35] = tested on: NCI-H2066 (Squamous Cell Lung Carcinoma); assay: as above
# Method in brief: as §1
# NY (Osteosarcoma) [36] = assay: as above
# Method in brief: as §1
# 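For Bliss excess, mean over the matrix in this document: after 72 h of two-drug dosing.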
smiles,measurement,setting,value
O=C(Nc1ccc2[nH]nc(-c3ccncc3)c2c1)[C@@H]1CCN(CC(=O)N2CCN(c3ccc(-c4ncccn4)cc3)CC2)C1,"IC50, cell viability 72 h",U-698-M; max 5 µM,> 5 µM
C=CCn1c(=O)c2cnc(Nc3ccc(N4CCN(C)CC4)cc3)nc2n1-c1cccc(C(C)(C)O)n1 [AZD1775],"IC50, cell viability 72 h",U-698-M; max 3 µM,0.26 µM
NC1(c2ccc(-c3nc4ccn5c(=O)[nH]nc5c4cc3-c3ccccc3)cc2)CCC1 [MK-2206],"IC50, cell viability 72 h",U-698-M; max 10 µM,> 10 µM
Cc1cc2ncnn2cc1Nc1ncc2c(n1)n(C1CCOCC1)c(=O)n2C [AZD7648],"IC50, cell viability 72 h",U-698-M; max 10 µM,> 10 µM
C[C@@H](Oc1cc(-c2cnn(C3CCNCC3)c2)cnc1N)c1c(Cl)ccc(F)c1Cl [Crizotinib],"IC50, cell viability 72 h",U-698-M; max 10 µM,5.06 µM
Cc1c2c(nn1C)CSCc1cc(n(C)n1)CSc1cc(c3ccccc3c1)OCCCc1c(C(=O)O)n(C)c3c-2c(Cl)ccc13 [AZD5991],"IC50, cell viability 72 h",U-698-M; max 1 µM,0.0692 µM
O=c1[nH]cc(F)c(=O)[nH]1 [5-Fluorouracil],"IC50, cell viability 72 h",U-698-M; max 20 µM,> 20 µM
N.N.O=C([O-])C1(C(=O)[O-])CCC1.[Pt+2] [Carboplatin],"IC50, cell viability 72 h",U-698-M; max 10 µM,> 10 µM
CCN(CCO)CCCOc1ccc2c(Nc3cc(CC(=O)Nc4cccc(F)c4)[nH]n3)ncnc2c1 [AZD2811],"IC50, cell viability 72 h",U-698-M; max 1 µM,> 1 µM
"Cc1c2c(nn1C)CSCc1cc(n(C)n1)CSc1cc(c3ccccc3c1)OCCCc1c(C(=O)O)n(C)c3c-2c(Cl)ccc13 [AZD5991] + CS(=O)(=O)CCNCc1ccc(-c2ccc3ncnc(Nc4ccc(OCc5cccc(F)c5)c(Cl)c4)c3c2)o1 [Lapatinib] (first compound max 1 µM, 7x7, partner max 10 µM)",combination Emax,[1],1
same,combination Emax,FU97 (Gastric Carcinoma) [2],0.906
same,combination Emax,[3],0.942
same,combination Emax,IGR-37 (Melanoma) [4],0.36
same,combination Emax,[5],0.969
same,combination Emax,[6],1
same,combination Emax,[7],0.968
same,combination Emax,[8],0.975
same,combination Emax,[9],0.96
same,combination Emax,U-2-OS (Osteosarcoma) [10],0.197
same,combination Emax,[11],0.186
same,combination Emax,[12],0.474
same,combination Emax,[13],0.294
same,combination Emax,[14],0.965
same,combination Emax,[15],0.111
same,combination Emax,[16],0.237
same,combination Emax,[17],0.426
same,combination Emax,NY (Osteosarcoma) [18],0.564
same,Bliss excess,[19],0.055
same,Bliss excess,FU97 (Gastric Carcinoma) [20],-0.0583
same,Bliss excess,[21],0.0641
same,Bliss excess,IGR-37 (Melanoma) [22],-0.0622
same,Bliss excess,[23],0.0948
same,Bliss excess,[24],0.0422
same,Bliss excess,[25],-0.0138
same,Bliss excess,[26],0.0088
same,Bliss excess,[27],-0.0052
same,Bliss excess,U-2-OS (Osteosarcoma) [28],-0.0345
same,Bliss excess,[29],-0.0087
same,Bliss excess,[30],-0.0585
same,Bliss excess,[31],-0.0232
same,Bliss excess,[32],-0.0425
same,Bliss excess,[33],-0.0332
same,Bliss excess,[34],0.0128
same,Bliss excess,[35],-0.0195
same,Bliss excess,NY (Osteosarcoma) [36],-0.0523
"CS(=O)(=O)CCNCc1ccc(-c2ccc3ncnc(Nc4ccc(OCc5cccc(F)c5)c(Cl)c4)c3c2)o1 [Lapatinib] + Cn1cnc2c(F)c(Nc3ccc(Br)cc3Cl)c(C(=O)NOCCO)cc21 [Selumetinib] (first compound max 10 µM, 7x7, partner max 10 µM)",combination Emax,[1],0.944
same,combination Emax,FU97 (Gastric Carcinoma) [2],0.906
same,combination Emax,[3],0.839
same,combination Emax,IGR-37 (Melanoma) [4],0.856
same,combination Emax,[5],0.924
same,combination Emax,[6],0.264
same,combination Emax,[7],0.395
same,combination Emax,[8],0.951
same,combination Emax,[9],0.182
same,combination Emax,U-2-OS (Osteosarcoma) [10],0.647
same,combination Emax,[11],0.424
same,combination Emax,[12],0.556
same,combination Emax,[13],0.748
same,combination Emax,[14],0.562
same,combination Emax,[15],0.14
same,combination Emax,[16],0.305
same,combination Emax,[17],0.338
same,combination Emax,NY (Osteosarcoma) [18],0.329
same,Bliss excess,[19],-0.0522
same,Bliss excess,FU97 (Gastric Carcinoma) [20],-0.0116
same,Bliss excess,[21],0.064
same,Bliss excess,IGR-37 (Melanoma) [22],-0.0934
same,Bliss excess,[23],0.128
same,Bliss excess,[24],0.0181
same,Bliss excess,[25],0.031
same,Bliss excess,[26],-0.0082
same,Bliss excess,[27],-0.0677
same,Bliss excess,U-2-OS (Osteosarcoma) [28],-0.0563
same,Bliss excess,[29],0.0147
same,Bliss excess,[30],0.0247
same,Bliss excess,[31],-0.0123
same,Bliss excess,[32],0.0289
same,Bliss excess,[33],-0.0224
same,Bliss excess,[34],-0.0416
same,Bliss excess,[35],-0.0156
same,Bliss excess,NY (Osteosarcoma) [36],0.0033
"N#Cc1cnc(Nc2cc(NC[C@H]3CNCCO3)c(C(F)(F)F)cn2)cn1 [SRA737] + C=CCn1c(=O)c2cnc(Nc3ccc(N4CCN(C)CC4)cc3)nc2n1-c1cccc(C(C)(C)O)n1 [AZD1775] (first compound max 10 µM, partner max 1 µM)",combination Emax,[1],0.916
same,combination Emax,FU97 (Gastric Carcinoma) [2],0.366
same,combination Emax,[3],0.253
same,combination Emax,IGR-37 (Melanoma) [4],0.789
same,combination Emax,[5],0.836
same,combination Emax,[6],0.706
same,combination Emax,[7],0.67
same,combination Emax,[8],0.823
same,combination Emax,[9],0.66
same,combination Emax,U-2-OS (Osteosarcoma) [10],0.877
same,combination Emax,[11],0.306
same,combination Emax,[12],0.42
same,combination Emax,[13],0.824
same,combination Emax,[14],0.817
same,combination Emax,[15],0.865
same,combination Emax,[16],0.352
same,combination Emax,[17],0.426
same,combination Emax,NY (Osteosarcoma) [18],0.673
same,Bliss excess,[19],0.0173
same,Bliss excess,FU97 (Gastric Carcinoma) [20],0.0097
same,Bliss excess,[21],-0.0345
same,Bliss excess,IGR-37 (Melanoma) [22],0.0182
same,Bliss excess,[23],0.177
same,Bliss excess,[24],0.116
same,Bliss excess,[25],0.0425
same,Bliss excess,[26],0.0773
same,Bliss excess,[27],0.0327
same,Bliss excess,U-2-OS (Osteosarcoma) [28],0.0962
same,Bliss excess,[29],-0.0431
same,Bliss excess,[30],-0.101
same,Bliss excess,[31],0.11
same,Bliss excess,[32],0.0952
same,Bliss excess,[33],0.0534
same,Bliss excess,[34],0.0428
same,Bliss excess,[35],0.0147
same,Bliss excess,NY (Osteosarcoma) [36],0.0355
